Data taken from ChEMBL document CHEMBL3045643, “Synthesis, crystal structure, and anticancer properties of cyclic monocarbonyl analogs of curcumin” (Med Chem Res, 2011).
Calls of active or inactive are those of the source. The rule behind the calls is not given here.

Experiments:
[1] = tested on: ACHN; test: Cytotoxicity against Homo sapiens (human) ACHN cells by CCK8-based colorimetric analysis; assay type: functional, cell-based
[2] = tested on: Calu-1; test: Cytotoxicity against Homo sapiens (human) Calu1 cells by CCK8-based colorimetric analysis; assay type: functional, cell-based
[3] = Cytotoxicity against Homo sapiens (human) H460 cells by CCK8-based colorimetric analysis; assay type: functional, cell-based; details: NCI-H460
[4] = tested on: HCT-116; test: Cytotoxicity against Homo sapiens (human) HCT116 cells by CCK8-based colorimetric analysis; assay type: functional, cell-based
[5] = tested on: PANC-1; test: Cytotoxicity against Homo sapiens (human) PANC1 cells by CCK8-based colorimetric analysis; assay type: functional, cell-based
[6] = Cytotoxicity against Homo sapiens (human) […] cells at 0.01 to 30 uM by CCK8-based colorimetric analysis; assay type: cell-based; details: wi-38, 30 µM
[7] = tested on: HCT-116; test: Cytotoxicity against Homo sapiens (human) HCT116 cells at 0.01 to 30 uM by CCK8-based colorimetric analysis; assay type: functional, cell-based
[8] = tested on: ACHN; test: Cytotoxicity against Homo sapiens (human) ACHN cells at 0.01 to 30 uM by CCK8-based colorimetric analysis; assay type: functional, cell-based
[9] = tested on: Calu-1; test: Cytotoxicity against Homo sapiens (human) Calu1 cells at 0.01 to 30 uM by CCK8-based colorimetric analysis; assay type: functional, cell-based
[10] = tested on: NCI-H460; test: Cytotoxicity against Homo sapiens (human) H460 cells at 0.01 to 30 uM by CCK8-based colorimetric analysis; assay type: functional, cell-based
[11] = tested on: PANC-1; test: Cytotoxicity against Homo sapiens (human) PANC1 cells at 0.01 to 30 uM by CCK8-based colorimetric analysis; assay type: functional, cell-based

Structure (SMILES) | IC50 [1] [µM] | IC50 [2] [µM] | IC50 [3] [µM] | IC50 [4] [µM] | IC50 [5] [µM] | Activity [6] | Activity [7] | Activity [8] | Activity [9] | Activity [10] | Activity [11]
CCOc1ccc(/C=C2\CN(Cc3ccccc3)C/C(=C\c3ccc(OCC)cc3)C2=O)cc1 | 6.9 | 8.1 | 5.5 | 8.3 | 7.2 | Non-toxic |  |  |  |  | 
COc1ccc(/C=C2\CN(Cc3ccccc3)C/C(=C\c3ccc(OC)cc3)C2=O)cc1 |  |  |  |  |  | Non-toxic | Active | Active | Active | Active | Active
O=C1/C(=C/c2cccc(O)c2)CN(Cc2ccccc2)C/C1=C\c1cccc(O)c1 |  |  |  |  |  | Non-toxic | Active | Active | Active | Active | Active
O=C1/C(=C/c2ccccc2)CN(Cc2ccccc2)C/C1=C\c1ccccc1 |  |  |  |  |  | Non-toxic | Active | Active | Active | Active | Active
COc1ccccc1/C=C1\C(=O)/C(=C\c2ccccc2OC)c2ccccc21 |  |  |  |  |  | Non-toxic | Active | Active | Active | Active | Active
